Patent US6846931B2, “Organic acid salt of amlodipine” (CJ Corp, priority 2002, dated 2005)

Key:
[1] = Chemical stability in aqueous state, 25° C., 4 weeks, complete darkness (HPLC); assay type: physicochemical; settings: distilled water
Experimental: The resulting aqueous solutions were stored at 25° C. for 4 weeks in complete darkness, after which a measurement was made of the contents of the salts with resort to HPLC under the same conditions as in the solid state.

[2] = Test for hygroscopicity (water content at different humidity levels); assay type: physicochemical; settings: for water content: 25° C.; for change of water content: one week under various humidity conditions
physchem = settings: 37 °C, pH 5, aqueous buffer
[3] = Test for light stability, aqueous solution exposed to daylight (HPLC content); assay type: physicochemical; settings: for color change: 4 weeks at 25° C., daylight; for content (HPLC): stored for 4 weeks at 25° C. daylight
Experimental: The resulting aqueous solutions were stored at 25° C. for 4 weeks while being exposed to daylight. A measurement was made of the contents of the salts with resort to HPLC under the same conditions as in the chemical stability test.

[4] = Chemical stability in solid state, accelerated test at 60° C. (HPLC content); assay type: physicochemical; settings: for changes in the content: accelerated test at 60° C.; for content (HPLC): solid state, 60° C.
Text: 1. HPLC Analysis Conditions:
Detector: UV Absorbance (at 237 nm)
Column: Octadesyl silica gel C18 (4.6 mm×150mm, 5 μm)
Mobile Phase: Potassium dihydrogenphosphate monobasic (0.03M): methanol=4:6 (v/v)

CCOC(=O)C1=C(COCCN)NC(C)=C(C(=O)OC)C1c1ccccc1Cl (stereo not drawn) [Besylate, Amlodipine Besylate]
decomposition products and content change [1]: neither decomposition products nor content change is found
water content ([2]; 25% RH, 1 week): 0.10%
water content ([2]; 60% RH, 1 week): 0.09%
water content ([2]; 75% RH, 1 week): 0.15%
water content ([2]; 90% RH, 1 week): 0.17%
water content ([2]; Initial): 0.14%
change of water content [2]: kept its initial water content without great fluctuation
solubility (physchem): 3150 µg/mL
color change [3]: turned yellow from white
content (HPLC) [3]: 82.5%
changes in the content [4]: virtually no changes in the content
content (HPLC) ([4]; 1 week): 99.6%
content (HPLC) ([4]; 2 weeks): 99.4%
content (HPLC) ([4]; initial): 99.6%

CCOC(=O)C1=C(COCCN)NC(C)=C(C(=O)OC)C1c1ccccc1Cl.Cc1ccc(S(=O)(=O)O)cc1 (stereo not drawn) [Tosylate, Amlodipine para-Toluenesulfonate]
content (HPLC) [3]: 72.0%

CCOC(=O)C1=C(COCCN)NC(C)=C(C(=O)OC)[C@@H]1c1ccccc1Cl [(S)-(−)-PyroGlu, Amlodipine (S)-(−)-Pyroglutamate]
decomposition products and content change [1]: neither decomposition products nor content change is found
water content ([2]; 25% RH, 1 week): 0.26%
water content ([2]; 60% RH, 1 week): 0.3%
water content ([2]; 75% RH, 1 week): 0.31%
water content ([2]; 90% RH, 1 week): 0.32%
water content ([2]; Initial): 0.3%
change of water content [2]: kept its initial water content without great fluctuation
color change [3]: no color change
content (HPLC) [3]: 98.5%
changes in the content [4]: virtually no changes in the content
content (HPLC) ([4]; 1 week): 99.6%
content (HPLC) ([4]; initial): 99.6%
